Results from patent publication EP2818471A1, “Nitrogen bicyclic compounds as inhibitors for Scyl1 and Grk5” (Max-Planck-Gesellschaft zur Förderung der Wissenschaften …, priority 2013, dated 2014).
Like-named read-outs stand apart in the source and are kept apart here.

How the values were obtained:
beta-TC6 cells [1] = assay: Insulin release in high glucose medium, rat/mouse insulin ELISA; type: cell-based; details: for activation at 5 µM / fold induction at 5 µM: Mus musculus, Beta-TC6, 2 h; for fold induction at 5 µM: high glucose (4.5 g/L)
Experimental: Cells were cultured overnight, washed with PBS and then treated with 5 µM of test compounds as well as non-inhibitor controls for 2 h in a high glucose (4.5 g/L) DMEM at 37°C and 5 % (v/v) CO2. Release of insulin was detected using a rat/mouse insulin ELISA.
After incubation, the supernatant of the beta-TC6 insulinoma cells was diluted 1:20, whereas the supernatants of the RIN-T2B-5AH were diluted 1:10. The insulin release was measured with rat/mouse insulin ELISA (Merck Millipore Darmstadt, Cat. # EZRMI-13K) by following the manufacture's protocol. The enzyme activity of the horseradish peroxidase of the immobilized biotinylated antibodies was monitored spectrophotometrically by the increased absorbency at 490 nm, and corrected by the absorbency at 610 nm.
Afterwards, the supernatant was analyzed for insulin using the rat/mouse insulin ELISA (Merck Millipore Darmstadt, Cat. # EZRMI-13K) by following the manufacture's protocol..
Cells were treated for 2 h in a high glucose (4.5 g/L) DMEM media at 37°C and 5 % (v/v) CO2. Insulin release was analyzed using the rat/mouse insulin ELISA.

[2] = system: 3T3-L pre-adipocytes differentiated to matured adipocytes; assay: Insulin dependence of 2-NBDG uptake in matured adipocytes; type: cell-based; details: compound added beside 10 µg/ml insulin, 1 h, 100 µM 2-NBDG; Figure 12
Experimental: To investigate if the 2-NBDG uptake of the inventive compound inhibitors of Scyl1 and GRK5 are insulin dependent, 3T3-L pre-adipocytes were differentiated to matured adipocytes. Afterwards, cells were starved for 4 h before they were washed and glucose free media supplied with 100 µM 2-NBDG, in the presence and absence of 10 µg/ml insulin and either Cpd 10 (Scyl1) of Cpd 1 (Grk5) was added for 1 h at 37 °C. Furthermore, as internal controls, samples of glucose free media or glucose free media with compound were measured (data not shown). Fluorescence was analyzed by flow cytometer (FACS Calibur, BD Bioscience, respectively a BD Accuri® C6 Flow Cytometer). For evaluation, cells were gated using the side- and forward scatter SSC/FSC and quantified by excited at 488 and detected at 533 nm (FL1).

beta-TC6 cells [3] = assay: Insulin HTRF assay, relative activity Ar normalized to sunitinib; type: cell-based; details: Mus musculus, normalized to positive control sunitinib (5 µM = 100%), Table 10
In short: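 beta-TC6 cells (15k/well) were seeded for 24 or 48 h, washed and exposed to test compound or sunitinib (5 µM f.c.) in induction buffer with 0.5% DMSO for 2, 3 or 4 h at 37°C. Secreted insulin in the supernatant was measured by two-antibody HTRF after 120 min at RT. Ar = (V − 0% control)/(100% control − 0% control) × 100.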

beta-TC6 cell system = assay: Comparison of insulin release with commercially available inhibitors, mouse/rat insulin ELISA; type: cell-based; details: Mus musculus, Beta-TC6; 5µM, 2 h; DMSO = 0; Table 9
Experimental: Based on literature references, several commercially available inhibitors were compared with compounds according to the invention. […] Cells were cultured for 24 h before treated with the inventive compounds and control inhibitors for 2 h at 37 °C and 5 % (v/v) CO2. Insulin in the supernatant was detected by mouse/rat insulin ELISA.

beta-TC6 cells [4] = assay: Insulin release in high glucose medium, rat/mouse insulin ELISA; type: cell-based; details: 2 h, high glucose (4.5 g/L)
C2C12 cells = assay: 2-NBDG glucose uptake by flow cytometry; details: for fold induction at 5 µM: Mus musculus, C2C12, 1 h, read-out: Ratio of 2-NBDG uptake
Experimental: (§1) Furthermore, as internal controls, samples of glucose free media, respectively glucose free media with test compound, were tested. Subsequently, cells were washed, trypsinized and harvested in ice-cold PBS before centrifuged at 1.6 x10^3 rpm at 4°C. Cells were analyzed by flow cytometry (FACS Calibur, BD Bioscience, respectively a BD Accuri® C6 Flow Cytometer).
(§2) To investigate the impact of the Grk5 inhibitors on Glucose uptake, cells were cultured 1 h in glucose free media supplied with 100 µM 2-NBDG at 37 °C and 5 % (v/v) CO2. Furthermore, as internal controls, samples of glucose free media, respectively glucose free media with test compounds, were measured. Fluorescence was analyzed by flow cytometer (FACS Calibur, BD Bioscience, respectively a BD Accuri® C6 Flow Cytometer).

beta-TC6 cells [5] = assay: 2-NBDG glucose uptake by flow cytometry; details: Mus musculus, Beta-TC6, 1 h, read-out: Ratio of 2-NBDG uptake
Experimental: as §1, §2

beta-TC6 = assay: MTT cytotoxicity assay (cell viability and proliferation); type: cell-based, mouse; details: beta-TC6, 72 h treatment, concentrations up to 10 µM
Experimental: Using a MTT approach, we determined the effect on cell viability and proliferation of beta-TC6 and C2C12 cells to display potential cytotoxicity of the compounds according to the invention in vitro after a 72 h treatment.
For MTT (3-(4,5-dimethylthiazol-2-yl)-2,5-diphenyl tetrazolium bromide) transformation, 1/5 of total volume of a 5 mg/mL MTT stock solution was added to the cells as well as control wells and incubated at 37 °C, 5 % CO2 (v/v) for 1 h. Then 1/2 of total volume of MTT-stop solution was added and plates were incubated overnight in the dark at 25 °C. The optical density (OD) was measured using a multiwell spectrophotometer at a wavelength of 570 nm.

NC(=O)c1ccc(-c2cnc3ccc(Cc4ccc(F)cc4)nn23)cc1 [compound 1, 4-[6-[(4-fluorophenyl)methyl]imidazo[1,2-b]pyridazin-3-yl]benzamide]
activation at 5 µM (beta-TC6 cells [1]; high glucose (4.5 g/L) DMEM, Example 9, Figure 6, ± SEM, read-out: increase of insulin release): 42.8 ± 6.8% | fold induction at 5 µM (beta-TC6 cells [1]; 0 µM = 1, Table 7): 1.81 | additional (insulin independent) increase [2]: 48.9 ± 7.2% | Emax (beta-TC6 cells [3]): 20 to 50% | activation at 5 µM (beta-TC6 cell system): 70.7% | fold induction at 2 µM (beta-TC6 cells [4]; 0 µM = 1, Table 7): 1.24 | fold induction at 10 µM (beta-TC6 cells [4]; 0 µM = 1, Table 7): 2.03 | uptake of 2-NBDG compared with negative control background (C2C12 cells; C2C12, 1 h compound treatment, Figure 10): significantly increased uptake of 2-NBDG | fold induction at 5 µM (C2C12 cells): 2.45 | fold induction at 5 µM (beta-TC6 cells [5]): 1.57

COc1cc(-c2ccc3ncc(-c4cccnc4)n3n2)cc(OC)c1OC [compound 10, 3-(3-pyridyl)-6-(3,4,5-trimethoxyphenyl)imidazo[1,2-b]pyridazine]
toxic effect (beta-TC6): no toxic effect at all | increase of insulin release (beta-TC6 cells [1]; 5 µM, 2 h, high glucose (4.5 g/L) DMEM, Example 4, Figure 2): 60.2 ± 8.9% | activation at 5 µM (beta-TC6 cells [1]; high glucose (4.5 g/L) DMEM, Example 4, Figure 2, read-out: increase of insulin release): 60.2 ± 8.9% | fold induction at 5 µM (beta-TC6 cells [1]; 0 µM = 1, Table 3): 3.04 | additional (insulin independent) increase [2]: 18.2 ± 3.5% | Emax (beta-TC6 cells [3]): 20 to 50% | activation at 5 µM (beta-TC6 cell system): 89.8% | fold induction at 2 µM (beta-TC6 cells [4]; 0 µM = 1, Table 3): 1.66 | fold induction at 10 µM (beta-TC6 cells [4]; 0 µM = 1, Table 3): 2.68 | fold induction at 5 µM (C2C12 cells): 1.55 | fold induction at 5 µM (beta-TC6 cells [5]): 1.14
